Reference: patent US11590116B2 (THERAVANCE BIOPHARMA R&D IP, LLC, priority 2019, dated 2023)

What was measured:
[1] = target: T1, recombinant human ALK5 (TGF-βR1) protein (Homo sapiens, UniProt P36897); test: Biochemical ALK5 (TGF-βR1) assay to measure pKi (LANCE Ultra ULight kinase assay); settings: apparent pKi from pIC50 by Cheng-Prusoff, read-out: ALK5 pKi (converted)
T1 construct: purchased Life Technologies PR9075A
T1 sequence (P36897 34-503): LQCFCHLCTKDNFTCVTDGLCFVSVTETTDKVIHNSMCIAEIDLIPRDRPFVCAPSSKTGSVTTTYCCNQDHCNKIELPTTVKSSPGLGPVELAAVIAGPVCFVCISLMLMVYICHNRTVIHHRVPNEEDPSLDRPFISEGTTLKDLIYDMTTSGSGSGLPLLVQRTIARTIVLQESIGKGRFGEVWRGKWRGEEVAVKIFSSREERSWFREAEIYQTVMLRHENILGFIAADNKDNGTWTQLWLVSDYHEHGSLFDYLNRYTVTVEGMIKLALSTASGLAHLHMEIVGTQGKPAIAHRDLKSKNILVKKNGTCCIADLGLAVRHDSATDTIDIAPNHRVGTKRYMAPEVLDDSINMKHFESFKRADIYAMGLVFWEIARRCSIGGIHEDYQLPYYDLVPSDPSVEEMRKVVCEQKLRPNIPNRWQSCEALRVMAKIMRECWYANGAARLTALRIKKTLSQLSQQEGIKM
Procedure, shortened: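 After a 60 min room-temperature preincubation of ALK5 with compound, phosphorylation proceeds 60 min at 37 °C on ATP addition (125 μM as 5× stock). Detection: Eu-labelled phospho-Thr1342 Topo IIα antibody in EDTA buffer, pH 7.0; emission 665 nm.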

[2] = system: TGF-β-stimulated SMAD3 phosphorylation in BEAS-2B cells; test: Cellular ALK5 potency assay, inhibition of TGF-β stimulated pSMAD3 formation in BEAS-2B cells; type: cell-based; settings: Homo sapiens; inhibition of TGF-β stimulated pSMAD3 formation, BEAS-2B cells; read-out: BEAS2B pIC50 (converted)
Procedure, shortened: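 SMAD3 phosphorylation was measured by AlphaLISA after 30 min TGF-β stimulation (10 ng/mL final) of BEAS-2B cells preincubated 1 h with compound at 37 °C. Results given as pIC50.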

SMILES	Ki [1] [nM]	IC50 [2] [nM]
Cc1cccc(-c2[nH]cnc2-c2ccc3ncc(C(=O)O[C@H]4CCCC[C@H]4N)cc3c2)n1 [Compound 882, (1S,2R)-2-aminocyclohexyl 6-(5-(6-methylpyridin-2-yl)-1H-imidazol-4-yl)quinoline-3-carboxylate]	3.98 to 31.6	25.1 to 158
Cc1cccc(-c2[nH]cnc2-c2ccc3ncc(N)cc3c2)n1 [Compound 594, 6-[5-(6-methyl-2-pyridyl)-1H-imidazol-4-yl]quinolin-3-amine]	0.0398 to 0.316	< 20
CNCCn1cc(-c2cnc3ccc(-c4nnn(Cc5ccccc5)c4-c4cccc(C)n4)cc3c2)cn1 [Compound 314, 2-[4-[6-[1-benzyl-5-(6-methyl-2-pyridyl)triazol-4-yl]-3-quinolyl]pyrazol-1-yl]-N-methyl-ethanamine]	3.98 to 31.6	1580 to 10000
Cc1cccc(-c2[nH]cnc2-c2ccc3ncc(C4=CCN(C)C4)cc3c2)n1 [Compound 16, 3-(1-methyl-2,5-dihydropyrrol-3-yl)-6-[5-(6-methyl-2-pyridyl)-1H-imidazol-4-yl]quinoline]	< 0.0316	< 20
CNC1CCN(c2cnc3ccc(-c4c[nH]nc4-c4cccc(C(C)C)n4)nc3c2)CC1 [Compound 364, 1-[6-[3-(6-isopropyl-2-pyridyl)-1H-pyrazol-4-yl]-1,5-naphthyridin-3-yl]-N-methyl-piperidin-4-amine]	0.0398 to 0.316	25.1 to 158
COc1cnc2ccc(-c3c[nH]nc3-c3cccc(C)n3)nc2c1 [Compound 321, 7-methoxy-2-[3-(6-methyl-2-pyridyl)-1H-pyrazol-4-yl]-1,5-naphthyridine]	< 0.0316	< 20
Cc1cccc(-c2[nH]cnc2-c2ccc3ncc(-c4ccnc(C(=O)OCCN5CCNCC5)c4)cc3c2)n1 [Compound 1099, 2-piperazin-1-ylethyl 4-[6-[5-(6-methyl-2-pyridyl)-1H-imidazol-4-yl]-3-quinolyl]pyridine-2-carboxylate]	0.0398 to 0.316	200 to 1260
Cc1cccc(-c2[nH]cnc2-c2ccc3ncc(-c4cccc(C(=O)OC5CCNCC5)c4)cc3c2)n1 [Compound 224, 4-piperidyl 3-[6-[5-(6-methyl-2-pyridyl)-1H-imidazol-4-yl]-3-quinolyl]benzoate]	0.0398 to 0.316	25.1 to 158
Cc1cccc(-c2[nH]cnc2-c2ccc3ncc(C4=CCC(NC(=O)CC5CNC5)CC4)cc3c2)n1 (racemic) [Compound 793, 2-(azetidin-3-yl)-N-[rac-(1R)-4-[6-[5-(6-methyl-2-pyridyl)-1H-imidazol-4-yl]-3-quinolyl]cyclohex-3-en-1-yl]acetamide]	0.0398 to 0.316	200 to 1260
Cc1cccc(-c2[nH]cnc2-c2ccc3ncc(-c4ncc(C(=O)OCCN5CCNCC5)cn4)cc3c2)n1 [Compound 1125, 2-piperazin-1-ylethyl 2-[6-[5-(6-methyl-2-pyridyl)-1H-imidazol-4-yl]-3-quinolyl]pyrimidine-5-carboxylate]	< 0.0316	25.1 to 158
Cc1cccc(-c2n[nH]cc2-c2ccc3ncc(N4CCC(N(C)CC(C)C)CC4)cc3n2)n1 [Compound 403, N-isobutyl-N-methyl-1-[6-[3-(6-methyl-2-pyridyl)-1H-pyrazol-4-yl]-1,5-naphthyridin-3-yl]piperidin-4-amine]	0.0398 to 0.316	25.1 to 158
Cc1nc(-c2n[nH]cc2-c2ccc3ncc(-c4nc5c(s4)CNCC5)cc3n2)ccc1F [Compound 329, 2-[6-[3-(5-fluoro-6-methyl-2-pyridyl)-1H-pyrazol-4-yl]-1,5-naphthyridin-3-yl]-4,5,6,7-tetrahydrothiazolo[5,4-c]pyridine]	0.0398 to 0.316	25.1 to 158

Now from value to compound, other results behind:

Ki [1] [nM]	SMILES	IC50 [2] [nM]
0.398 to 3.16	Cc1cccc(-c2[nH]cnc2-c2ccc3nccc(C(=O)OC[C@H]4CC[C@@H](N)CC4)c3c2)n1 [Compound 1077, (4-aminocyclohexyl)methyl 6-[5-(6-methyl-2-pyridyl)-1H-imidazol-4-yl]quinoline-4-carboxylate]	25.1 to 158
0.398 to 3.16	Cc1cccc(-c2[nH]ncc2-c2ccc3ncc(C(=O)O[C@H]4CCNC4)cc3n2)n1 [Compound 210, [(3S)-pyrrolidin-3-yl]6-[5-(6-methyl-2-pyridyl)-1H-pyrazol-4-yl]-1,5-naphthyridine-3-carboxylate]	25.1 to 158
0.0398 to 0.316	Cc1cccc(-c2[nH]cnc2-c2ccc3ncc(-c4cc(C(=O)OCCN5CCNCC5)cs4)cc3c2)n1 [Compound 1141, 2-piperazin-1-ylethyl 5-[6-[5-(6-methyl-2-pyridyl)-1H-imidazol-4-yl]-3-quinolyl]thiophene-3-carboxylate]	25.1 to 158
0.0398 to 0.316	Cc1cccc(-c2[nH]ncc2-c2ccc3ncc(C(=O)OCCN4CCNCC4)cc3c2)n1 [Compound 876, 2-(piperazin-1-yl)ethyl 6-(5-(6-methylpyridin-2-yl)-1H-pyrazol-4-yl)quinoline-3-carboxylate]	< 20
0.0398 to 0.316	Cc1cccc(-c2n[nH]cc2-c2ccc3ncc(Br)cc3n2)n1 [Compound 323, 7-bromo-2-[3-(6-methyl-2-pyridyl)-1H-pyrazol-4-yl]-1,5-naphthyridine]	< 20
< 0.0316	Cc1cccc(-c2n[nH]cc2-c2ccc3ncc(-c4cc(C)nn4C)cc3n2)n1 [Compound 596, 7-(2,5-dimethylpyrazol-3-yl)-2-[3-(6-methyl-2-pyridyl)-1H-pyrazol-4-yl]-1,5-naphthyridine]	< 20
0.0398 to 0.316	Cc1cccc(-c2[nH]cnc2-c2ccc3ncc(-c4cncc(C(=O)OC5CCNCC5)c4)cc3c2)n1 [Compound 136, 4-piperidyl 5-[6-[5-(6-methyl-2-pyridyl)-1H-imidazol-4-yl]-3-quinolyl]pyridine-3-carboxylate]	200 to 1260
0.0398 to 0.316	COC(=O)[C@@H]1CCCN(CCNc2cnc3ccc(-c4nc[nH]c4-c4cccc(C)n4)cc3c2)C1 [Compound 728, methyl (3R)-1-[2-[[6-[5-(6-methyl-2-pyridyl)-1H-imidazol-4-yl]-3-quinolyl]amino]ethyl]piperidine-3-carboxylate]	25.1 to 158
< 0.0316	Cc1cccc(-c2[nH]cnc2-c2ccc3ncc(-c4cc(C(=O)OC5CNC5)cs4)cc3c2)n1 [Compound 1057, azetidin-3-yl 5-[6-[5-(6-methyl-2-pyridyl)-1H-imidazol-4-yl]-3-quinolyl]thiophene-3-carboxylate]	25.1 to 158
< 0.0316	Cc1cccc(-c2n[nH]cc2-c2ccc3ncc(-c4cc5n(n4)CCN5)cc3n2)n1 [Compound 564, 7-(2,3-dihydro-1H-imidazo[1,2-b]pyrazol-6-yl)-2-[3-(6-methyl-2-pyridyl)-1H-pyrazol-4-yl]-1,5-naphthyridine]	< 20
0.0398 to 0.316	Cc1cccc(-c2n[nH]cc2-c2ccc3ncc(-c4nc(CCN)c(C)[nH]4)cc3n2)n1 [Compound 671, 2-[5-methyl-2-[6-[3-(6-methyl-2-pyridyl)-1H-pyrazol-4-yl]-1,5-naphthyridin-3-yl]-1H-imidazol-4-yl]ethanamine]	200 to 1260
0.0398 to 0.316	Cc1cccc(-c2[nH]cnc2-c2ccc3ncc(NC4CCNCC4)cc3c2)n1 [Compound 187, 6-[5-(6-methyl-2-pyridyl)-1H-imidazol-4-yl]-N-(4-piperidyl)quinolin-3-amine]	200 to 1260
< 0.0316	Cc1cccc(-c2n[nH]cc2-c2ccc3ncc(-c4cnn(C5CNC5)c4)cc3n2)n1 [Compound 386, 7-[1-(azetidin-3-yl)pyrazol-4-yl]-2-[3-(6-methyl-2-pyridyl)-1H-pyrazol-4-yl]-1,5-naphthyridine]	25.1 to 158
0.0398 to 0.316	Cc1cccc(-c2n[nH]cc2-c2ccc3ncc(-c4ncc5n4CCNC5)cc3n2)n1 [Compound 143, 2-[3-(6-methyl-2-pyridyl)-1H-pyrazol-4-yl]-7-(5,6,7,8-tetrahydroimidazo[1,5-a]pyrazin-3-yl)-1,5-naphthyridine]	200 to 1260
< 0.0316	Cc1nc(-c2n[nH]cc2-c2ccc3ncc(-c4cn5c(n4)NCC5)cc3n2)ccc1F [Compound 658, 7-(2,3-dihydro-1H-imidazo[1,2-a]imidazol-6-yl)-2-[3-(5-fluoro-6-methyl-2-pyridyl)-1H-pyrazol-4-yl]-1,5-naphthyridine]	< 20
0.0398 to 0.316	Cc1cccc(-c2[nH]cnc2-c2ccc3ncc(-c4cccc(C(=O)O)n4)cc3c2)n1 [Compound 1041, 6-[6-[5-(6-methyl-2-pyridyl)-1H-imidazol-4-yl]-3-quinolyl]pyridine-2-carboxylic acid]	1580 to 10000
3.98 to 31.6	Cc1cccc(-c2[nH]ncc2-c2ccc3ncc(C(=O)N(C)CCN4CCOCC4)cc3n2)n1 [Compound 182, N-methyl-6-[5-(6-methyl-2-pyridyl)-1H-pyrazol-4-yl]-N-(2-morpholinoethyl)-1,5-naphthyridine-3-carboxamide]	200 to 1260
